Data reported in patent US9428456B2, “1-[m-carboxamido(hetero)aryl-methyl]-heterocyclyl-carboxamide derivatives” (Actelion Pharmaceuticals Ltd., priority 2012, dated 2016).

What follows are compounds tested against CXCR7 (Homo sapiens (Human), UniProt P25106) (assay: PathHunter CHO-K1 CXCR7 b-arrestin assay (agonistic activity)). Settings: PathHunter CHO-K1 CXCR7 b-arrestin cell line.
CXCR7, sequence (P25106 whole entry): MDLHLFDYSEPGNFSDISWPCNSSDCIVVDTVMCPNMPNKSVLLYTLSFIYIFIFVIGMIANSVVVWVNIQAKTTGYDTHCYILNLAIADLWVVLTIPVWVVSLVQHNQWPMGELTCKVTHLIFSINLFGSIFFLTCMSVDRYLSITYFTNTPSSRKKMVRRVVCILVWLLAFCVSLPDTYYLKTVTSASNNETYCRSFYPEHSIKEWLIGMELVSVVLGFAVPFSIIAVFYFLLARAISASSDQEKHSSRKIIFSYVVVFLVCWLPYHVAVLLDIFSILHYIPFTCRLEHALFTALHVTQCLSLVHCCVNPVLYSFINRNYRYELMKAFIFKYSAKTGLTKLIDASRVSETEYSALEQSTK
CXCR7, sequence (P32121 whole entry partner): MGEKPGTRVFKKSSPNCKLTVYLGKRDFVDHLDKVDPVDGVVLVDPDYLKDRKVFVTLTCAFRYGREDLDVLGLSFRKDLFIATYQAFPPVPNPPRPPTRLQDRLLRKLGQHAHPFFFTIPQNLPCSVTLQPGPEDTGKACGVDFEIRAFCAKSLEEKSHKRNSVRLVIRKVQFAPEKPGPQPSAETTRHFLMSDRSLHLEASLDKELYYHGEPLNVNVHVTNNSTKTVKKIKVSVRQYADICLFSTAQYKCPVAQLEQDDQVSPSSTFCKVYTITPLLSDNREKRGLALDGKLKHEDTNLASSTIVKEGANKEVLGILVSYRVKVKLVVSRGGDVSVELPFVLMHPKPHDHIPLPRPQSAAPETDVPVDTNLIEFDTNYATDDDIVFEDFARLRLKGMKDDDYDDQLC
Assay type: cell-based
How it was run: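 CHO-K1 cells co-expressing ProLink-tagged CXCR7 and EA-fused β-arrestin 2 (enzyme fragment complementation); compounds added in HBSS/20 mM HEPES/0.2% BSA after 3–4 h in OPTIMEM, 90 min at 37 °C. Chemiluminescent β-gal signal read after 1 h detection at room temperature; EC50 reported as geometric mean of several measurements.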
In the case of `CCc1cncc(C(=O)Nc2cccc(CN3CCC(C(=O)NC(C)(C)C)CC3)c2)c1` [Example 1.241], the EC50 is reported as 4 nM. Work on `CC(C)(C)NC(=O)C1CCN(Cc2cccc(NC(=O)c3cc(C(F)(F)F)ccn3)c2)CC1` [Example 1.242] yielded an EC50 of 6 nM. For `CC(C)(C)NC(=O)C1CCN(Cc2cccc(NC(=O)Cc3ccc(Cl)cc3Cl)c2)CC1` [Example 1.244], the EC50 was 5 nM. For `CC(C)(C)NC(=O)C1CCN(Cc2cccc(NC(=O)Cc3c(Cl)cccc3Cl)c2)CC1` [Example 1.245], the EC50 was 1 nM. In the case of `CC(C)(C)NC(=O)C1CCN(Cc2cccc(NC(=O)Cc3cccc(Cl)c3Cl)c2)CC1` [Example 1.246], the EC50 is reported as 3 nM. With `CC(C)(C)NC(=O)C1CCN(Cc2cccc(NC(=O)Cc3c(F)cccc3Cl)c2)CC1` [Example 1.247] the EC50 was 2 nM. In the case of `CC(C)(C)NC(=O)C1CCN(Cc2cccc(NC(=O)Cc3ccc(F)cc3Cl)c2)CC1` [Example 1.248], the EC50 is reported as 2 nM. `CC(C)(C)NC(=O)C1CCN(Cc2cccc(NC(=O)Cc3cccc(C(F)(F)F)c3Cl)c2)CC1` [Example 1.249] showed an EC50 of 2 nM. `CC(C)(C)NC(=O)C1CCN(Cc2cccc(NC(=O)Cc3c(Cl)ccc(C(F)(F)F)c3Cl)c2)CC1` [Example 1.250] gave an EC50 of 3 nM. Work on `CC(C)(C)NC(=O)C1CCN(Cc2cccc(NC(=O)Cc3c(C(F)(F)F)ccc(Cl)c3Cl)c2)CC1` [Example 1.251] yielded an EC50 of 3 nM. Work on `CC(C)(C)NC(=O)C1CCN(Cc2cccc(NC(=O)Cc3cc(F)c(Cl)cc3Cl)c2)CC1` [Example 1.252] yielded an EC50 of 4 nM. Compound `CC(C)(C)NC(=O)C1CCN(Cc2cccc(NC(=O)Cc3c(F)ccc(Cl)c3Cl)c2)CC1` [Example 1.253] has an EC50 of 4 nM. `CC(C)(C)NC(=O)C1CCN(Cc2cccc(NC(=O)Cc3c(F)ccc(F)c3Cl)c2)CC1` [Example 1.254] gave an EC50 of 2 nM. Compound `CC(C)(C)NC(=O)C1CCN(Cc2cccc(NC(=O)CC3CCOCC3)c2)CC1` [Example 1.255] has an EC50 of 137 nM. In the case of `CC(C)(C)NC(=O)C1CCN(Cc2cccc(NC(=O)Cc3ccccc3Cl)c2)CC1` [Example 1.258], the EC50 is reported as 1 nM. `CC(C)(C)NC(=O)C1CCN(Cc2cccc(NC(=O)Cc3ccccc3)c2)CC1` [Example 1.259] gave an EC50 of 4 nM. `CC(C)(C)NC(=O)C1CCN(Cc2cccc(NC(=O)C3C(C)(C)C3(C)C)c2)CC1` [Example 1.260] was tested, and the EC50 was 0.9 nM. Work on `Cc1nc(CC(=O)Nc2cccc(CN3CCC(C(=O)NC(C)(C)C)CC3)c2)c(C)s1` [Example 1.261] yielded an EC50 of 2 nM. In the case of `Cc1nc(C)c(CC(=O)Nc2cccc(CN3CCC(C(=O)NC(C)(C)C)CC3)c2)s1` [Example 1.262], the EC50 is reported as 120 nM. For `CC(C)(C)NC(=O)C1CCN(Cc2cccc(NC(=O)Cc3cnccn3)c2)CC1` [Example 1.263], the EC50 was 143 nM. With `CC(C)(C)NC(=O)C1CCN(Cc2cccc(NC(=O)Cc3ncccn3)c2)CC1` [Example 1.264] the EC50 was 90 nM. With `CC(C)(C)NC(=O)C1CCN(Cc2cccc(NC(=O)C3(c4ccc(Cl)cc4Cl)CC3)c2)CC1` [Example 1.268] the EC50 was 2 nM. `CC(C)(C)NC(=O)C1CCN(Cc2cccc(NC(=O)CC3Cc4ccccc4C3)c2)CC1` [Example 1.272] showed an EC50 of 2 nM. Work on `CC(C)CN(C)C(=O)C1CCN(Cc2cccc(NC(=O)c3ccc(F)cc3)c2)CC1` [Example 1.273] yielded an EC50 of 2 nM. With `CC(C)CN(C)C(=O)C1CCN(Cc2cccc(NC(=O)c3cccc(C(F)(F)F)n3)c2)CC1` [Example 1.274] the EC50 was 9 nM. With `CC(C)CN(C)C(=O)C1CCN(Cc2cccc(NC(=O)c3ccc(C(F)(F)F)cn3)c2)CC1` [Example 1.275] the EC50 was 3 nM. `CC(C)CN(C)C(=O)C1CCN(Cc2cccc(NC(=O)c3cncc(C(F)(F)F)c3)c2)CC1` [Example 1.276] gave an EC50 of 6 nM. In the case of `CC(C)CN(C)C(=O)C1CCN(Cc2cccc(NC(=O)c3cncc(F)c3)c2)CC1` [Example 1.277], the EC50 is reported as 18 nM. `CC(C)CN(C)C(=O)C1CCN(Cc2cccc(NC(=O)c3cncc(Cl)c3)c2)CC1` [Example 1.278] was tested, and the EC50 was 6 nM. `CC(C)(C)NC(=O)C1CCN(Cc2cc(Br)cc(NC(=O)c3cccc(C(F)(F)F)n3)c2)CC1` [Example 1.279] showed an EC50 of 420 nM. For `COc1cc(CN2CCC(C(=O)NC(C)(C)C)CC2)cc(NC(=O)c2ccc(F)cc2)c1` [Example 1.280], the EC50 was 409 nM. `Cc1ccc(C(=O)Nc2cccc(CN3CCC(C(=O)NC4CCCCC4)CC3)c2)s1` [Example 1.281] showed an EC50 of 3 nM. In the case of `O=C(Nc1cccc(CN2CCC(C(=O)NC3CCCCC3)CC2)c1)c1ccc(Cl)s1` [Example 1.282], the EC50 is reported as 5 nM. In the case of `CC(C)(C)c1ccc(C(=O)Nc2cccc(CN3CCC(C(=O)NC4CCCCC4)CC3)c2)s1` [Example 1.283], the EC50 is reported as 34 nM. In the case of `O=C(Nc1ccnc(CN2CCC(C(=O)NC3CCCCC3)CC2)n1)c1cccc(C(F)(F)F)n1` [Example 1.284], the EC50 is reported as 223 nM. `Cc1cncc(C(=O)Nc2ccnc(CN3CCC(C(=O)NC4CCCCC4)CC3)n2)c1` [Example 1.285] showed an EC50 of 199 nM. `CC(C)(C)NC(=O)C1CCN(Cc2nccc(NC(=O)c3cccc(C(F)(F)F)n3)n2)CC1` [Example 1.286] was tested, and the EC50 was 265 nM. `O=C(Nc1nc(CN2CCC(C(=O)NC3CCCC3)CC2)cs1)c1ccc(Cl)cc1` [Example 1.293] was tested, and the EC50 was 81 nM. With `Cc1cncc(C(=O)Nc2nc(CN3CCC(C(=O)NC4CCCC4)CC3)cs2)c1` [Example 1.294] the EC50 was 408 nM. With `COc1ccc(NC(=O)c2cccc(C(F)(F)F)n2)cc1CN1CCC(C(=O)NC(C)(C)C)CC1` [Example 1.296] the EC50 was 6 nM. `COc1ccc(NC(=O)c2cncc(C)c2)cc1CN1CCC(C(=O)NC(C)(C)C)CC1` [Example 1.297] was tested, and the EC50 was 98 nM. With `COc1ccc(NC(=O)c2ccc(F)cc2)cc1CN1CCC(C(=O)NC(C)(C)C)CC1` [Example 1.298] the EC50 was 19 nM. `Cc1cncc(C(=O)Nc2ccc(C)c(CN3CCC(C(=O)NC(C)(C)C)CC3)c2)c1` [Example 1.299] showed an EC50 of 3 nM. `Cc1ccc(NC(=O)c2ccc(F)cc2)cc1CN1CCC(C(=O)NC(C)(C)C)CC1` [Example 1.300] was tested, and the EC50 was 1 nM. `Cc1ccc(CN2CCC(C(=O)NC(C)(C)C)CC2)cc1NC(=O)c1cccc(C(F)(F)F)n1` [Example 1.301] showed an EC50 of 2 nM. For `Cc1cncc(C(=O)Nc2cc(CN3CCC(C(=O)NC(C)(C)C)CC3)ccc2C)c1` [Example 1.302], the EC50 was 6 nM. `Cc1ccc(CN2CCC(C(=O)NC(C)(C)C)CC2)cc1NC(=O)c1ccc(F)cc1` [Example 1.303] showed an EC50 of 3 nM. `COc1ccc(CN2CCC(C(=O)NC(C)(C)C)CC2)cc1NC(=O)c1cccc(C(F)(F)F)n1` [Example 1.304] gave an EC50 of 4 nM. With `COc1ccc(CN2CCC(C(=O)NC(C)(C)C)CC2)cc1NC(=O)c1cncc(C)c1` [Example 1.305] the EC50 was 7 nM. With `COc1ccc(CN2CCC(C(=O)NC(C)(C)C)CC2)cc1NC(=O)c1ccc(F)cc1` [Example 1.306] the EC50 was 4 nM. `CC(C)(C)NC(=O)C1CCN(Cc2cccc(NC(=O)C3(c4ccccc4)CC3)c2)CC1` [Example 1.309] showed an EC50 of 1 nM. Compound `CC(C)(C)NC(=O)C1CCN(Cc2cccc(NC(=O)C3(c4ccc(Cl)cc4)CC3)c2)CC1` [Example 1.310] has an EC50 of 2 nM. Compound `CC(C)(C)NC(=O)C1CCN(Cc2cccc(NC(=O)C(C)(C)c3ccccc3)c2)CC1` [Example 1.311] has an EC50 of 1 nM. In the case of `CC(C(=O)Nc1cccc(CN2CCC(C(=O)NC(C)(C)C)CC2)c1)c1ccc(Cl)cc1` (stereo not drawn) [Example 1.312], the EC50 is reported as 8 nM. Compound `Cc1c(CN2CCC(C(=O)NC(C)(C)C)CC2)cccc1NC(=O)c1ccc(F)cc1` [Example 1.313] has an EC50 of 19 nM. For `Cc1cncc(C(=O)Nc2cccc(CN3CCC(C(=O)NC(C)(C)C)CC3)c2C)c1` [Example 1.314], the EC50 was 145 nM. `Cc1c(CN2CCC(C(=O)NC(C)(C)C)CC2)cccc1NC(=O)c1cccc(C(F)(F)F)n1` [Example 1.315] showed an EC50 of 193 nM. `Cc1cc(CN2CCC(C(=O)NC(C)(C)C)CC2)cc(NC(=O)c2cccc(C(F)(F)F)n2)c1` [Example 1.316] showed an EC50 of 36 nM. `Cc1cc(CN2CCC(C(=O)NC(C)(C)C)CC2)cc(NC(=O)c2cncc(C)c2)c1` [Example 1.317] gave an EC50 of 76 nM. `Cc1cc(CN2CCC(C(=O)NC(C)(C)C)CC2)cc(NC(=O)c2ccc(F)cc2)c1` [Example 1.318] was tested, and the EC50 was 13 nM. In the case of `COc1c(CN2CCC(C(=O)NC(C)(C)C)CC2)cccc1NC(=O)c1cccc(C(F)(F)F)n1` [Example 1.319], the EC50 is reported as 45 nM. `COc1c(CN2CCC(C(=O)NC(C)(C)C)CC2)cccc1NC(=O)c1cncc(C)c1` [Example 1.320] showed an EC50 of 48 nM. Compound `COc1c(CN2CCC(C(=O)NC(C)(C)C)CC2)cccc1NC(=O)c1ccc(F)cc1` [Example 1.321] has an EC50 of 6 nM. With `CC(C)(C)NC(=O)C1CCN(Cc2cccc(NC(=O)c3cccnn3)c2)CC1` [Example 1.322] the EC50 was 4 nM. For `CC(C)(C)NC(=O)C1CCN(Cc2cccc(NC(=O)c3ccnnc3)c2)CC1` [Example 1.323], the EC50 was 66 nM. For `Cc1cc(C(=O)Nc2cccc(CN3CCC(C(=O)NC(C)(C)C)CC3)c2)c(Cl)nn1` [Example 1.324], the EC50 was 51 nM. `COc1cc(CN2CCC(C(=O)NC(C)(C)C)CC2)cc(NC(=O)c2cccc(C(F)(F)F)n2)c1` [Example 1.325] gave an EC50 of 262 nM. Work on `CCc1ccc(CN2CCC(C(=O)NC(C)(C)C)CC2)cc1NC(=O)c1cccc(C(F)(F)F)n1` [Example 1.326] yielded an EC50 of 2 nM. `CCc1ccc(CN2CCC(C(=O)NC(C)(C)C)CC2)cc1NC(=O)c1cncc(C)c1` [Example 1.327] gave an EC50 of 28 nM. `CCc1ccc(CN2CCC(C(=O)NC(C)(C)C)CC2)cc1NC(=O)c1ccc(F)cc1` [Example 1.328] showed an EC50 of 8 nM. `CCc1cc(CN2CCC(C(=O)NC(C)(C)C)CC2)cc(NC(=O)c2cccc(C(F)(F)F)n2)c1` [Example 1.329] was tested, and the EC50 was 159 nM. Compound `CCc1cc(CN2CCC(C(=O)NC(C)(C)C)CC2)cc(NC(=O)c2cncc(C)c2)c1` [Example 1.330] has an EC50 of 285 nM. `CCc1cc(CN2CCC(C(=O)NC(C)(C)C)CC2)cc(NC(=O)c2ccc(F)cc2)c1` [Example 1.331] was tested, and the EC50 was 62 nM. With `CCc1ccc(NC(=O)c2cccc(C(F)(F)F)n2)cc1CN1CCC(C(=O)NC(C)(C)C)CC1` [Example 1.332] the EC50 was 16 nM. With `CCc1ccc(NC(=O)c2cncc(C)c2)cc1CN1CCC(C(=O)NC(C)(C)C)CC1` [Example 1.333] the EC50 was 57 nM.
